From publication PMC10060287 (Pharmacological Reports, 2023)
“Also recorded” adds a separate entry of the source. Ends that are not written are not given here.

How the values were obtained:
µ-opioid receptor (µOR) [1] = biological target: T1, µ-opioid receptor (µOR) (Rattus norvegicus, UniProt P33535); assay: Saturation binding of [^3H]DAMGO with varying G-peptide concentrations; assay type: Wistar rat (brain membranes)
µ-opioid receptor (µOR) [2] = biological target: T1, µ-opioid receptor (µOR); assay type: binding, Wistar rat (brain membranes)

T1 sequence (P33535 whole entry): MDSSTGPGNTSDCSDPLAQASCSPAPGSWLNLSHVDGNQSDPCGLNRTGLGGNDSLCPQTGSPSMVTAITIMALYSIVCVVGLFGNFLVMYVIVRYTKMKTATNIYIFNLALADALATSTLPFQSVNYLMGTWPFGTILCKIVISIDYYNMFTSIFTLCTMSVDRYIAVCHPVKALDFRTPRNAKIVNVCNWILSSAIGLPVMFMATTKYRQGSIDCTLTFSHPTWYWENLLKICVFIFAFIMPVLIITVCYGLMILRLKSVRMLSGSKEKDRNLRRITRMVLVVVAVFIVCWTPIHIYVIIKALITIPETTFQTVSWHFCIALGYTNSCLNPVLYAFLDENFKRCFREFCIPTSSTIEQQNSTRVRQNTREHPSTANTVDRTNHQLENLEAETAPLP

## IIKNNLKDCGLF-NH2 [G-peptide]
µ-opioid receptor (µOR) [1]; saturation experiments for [H^3]DAMGO
  affinity increase caused by the G-peptide: dose dependency of the affinity increase
µ-opioid receptor (µOR) [1]; saturation experiments with radio-ligand
  lowest G-peptide concentration affecting the binding: 10 µM
µ-opioid receptor (µOR) [1]; two sets of experiments, G-peptide 0.01 to 25 µM and 0.01 to 200 µM
  Bmax of DAMGO upon adding G-peptide: concentration-dependent decrease in the Bmax value of DAMGO
µ-opioid receptor (µOR) [1]; varying concentrations of the G-peptide
  equilibrium dissociation constant Kd and Bmax of DAMGO upon adding G-peptide: change in both the equilibrium dissociation constant Kd and Bmax
µ-opioid receptor (µOR) [2]
  G-peptide concentration needed for characteristic shift in the binding curve of morphine: ≥ 100 µM
  affinity of the peptide: micromolar level; also recorded: micromolar range
  allosteric modulation of µOR: binds the µ-opioid receptor and acts as an allosteric modulator
  dose dependence of G-peptide effect on morphine binding: increases µOR affinity for its agonist morphine in a dose-dependent way
  orthosteric binding of the G-peptide: no significant orthosteric coupling to µOR; also recorded: inactive through the orthosteric binding site of µOR; also recorded: did not interact directly with the orthosteric binding site
